# Where two headings read alike, the source gives them in different places.
# Assays:
# [1] = system: serogroup B meningococcus; format: in vivo, CD-1 mice; details: 5CVMB at days 0 & 14 with (b) the agonist compound
# [2] = Muscle levels 24 hours after intramuscular injection; format: in vivo, Balb/C mice; details: for detection in muscle 24 hours after intramuscular injection / concentration at 24 h: 100 μg; for concentration at 24 h: Balb/C, mouse, muscle, intramuscular, 100 μg i.m.
# serum cytokines = assay: Serum cytokines after administration; details: in vivo
# Water solubility = format: physicochemical; details: read-out: water-soluble at
# human TLR7 = target: T1, human TLR7 (Homo sapiens, UniProt Q9NYK1); assay: HEK293 human TLR7 NF-κB luciferase reporter assay; format: cell-based; details: HEK293 cells
# T1 construct: expressed in transfected cells; host or cells: HEK293
# T1 sequence (Q9NYK1 27-1049): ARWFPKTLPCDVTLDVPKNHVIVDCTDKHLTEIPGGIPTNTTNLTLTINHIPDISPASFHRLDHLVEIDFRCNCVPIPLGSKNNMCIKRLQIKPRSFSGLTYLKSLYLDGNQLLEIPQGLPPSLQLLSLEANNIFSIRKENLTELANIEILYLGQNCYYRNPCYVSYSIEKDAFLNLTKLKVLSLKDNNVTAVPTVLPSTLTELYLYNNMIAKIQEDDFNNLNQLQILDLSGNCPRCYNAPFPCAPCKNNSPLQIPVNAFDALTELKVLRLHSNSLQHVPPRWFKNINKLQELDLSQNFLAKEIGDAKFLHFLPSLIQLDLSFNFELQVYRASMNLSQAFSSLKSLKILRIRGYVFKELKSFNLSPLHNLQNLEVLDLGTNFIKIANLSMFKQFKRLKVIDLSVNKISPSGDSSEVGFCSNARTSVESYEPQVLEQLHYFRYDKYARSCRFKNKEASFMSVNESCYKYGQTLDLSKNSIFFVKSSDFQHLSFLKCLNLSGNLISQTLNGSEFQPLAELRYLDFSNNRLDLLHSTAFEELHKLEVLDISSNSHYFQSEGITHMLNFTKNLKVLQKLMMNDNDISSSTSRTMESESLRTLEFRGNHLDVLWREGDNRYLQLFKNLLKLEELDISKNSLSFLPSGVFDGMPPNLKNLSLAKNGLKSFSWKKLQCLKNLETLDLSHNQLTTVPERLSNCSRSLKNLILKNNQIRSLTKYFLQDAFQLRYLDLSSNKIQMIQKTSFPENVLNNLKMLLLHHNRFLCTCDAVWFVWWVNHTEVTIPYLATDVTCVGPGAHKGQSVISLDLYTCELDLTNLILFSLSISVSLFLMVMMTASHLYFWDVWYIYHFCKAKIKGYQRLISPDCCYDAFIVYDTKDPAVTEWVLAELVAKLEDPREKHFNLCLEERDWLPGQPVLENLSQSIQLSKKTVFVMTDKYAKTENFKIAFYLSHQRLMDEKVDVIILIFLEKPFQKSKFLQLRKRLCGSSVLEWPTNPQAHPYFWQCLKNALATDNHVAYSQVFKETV
# Protocol: The activity of this compound is assessed in an assay using HEK293 cells which are stably transfected with human TLR7 and an NF-κB-driven luciferase reporter vector (pNifty-Luciferase). As a control assay, normal HEK293 transfected with pNifty-Luc are used. Cells are cultured in DMEM supplemented with 2 mM L-glutamine, 10% heart inactivated FBS, 1% penicillin and streptomycin, 2 μg/ml puromycin and 5 μg/ml of blasticidin. Bright-Glo™ Luciferase assay buffer and substrate are supplied by Promega. Cells are plated at 25,000 cells/well in 384-well plates in a final volume of 50 μl of media. Cells are allowed to adhere to the plates after overnight (18 hours) culture at 37° C. and 5% CO2. Serially-diluted experimental and positive control compounds are then dispensed to each well and incubated for 7 hours at 37° C. and 5% CO2. Cells stimulated with DMSO alone serve as negative controls. After the incubation, 30 μl of the pre-mix assay buffer and substrate buffer are added to each well according to manufacturer's instructions. The luminescence signal is read on a CLIPR machine with an integration time of 20 seconds per plate.
# [3] = Systemic serum exposure after intramuscular injection; format: in vivo, Balb/C mice; details: Balb/C, mouse; for AUC: im, 100 μg i.m.; for Cmax: intramuscular, 100 μg
# [4] = Model of in vivo desorption from Al—H; format: in vitro ADME; details: 37° C.
# [5] = format: physicochemical; details: SDS-PAGE of supernatants
# [6] = Confocal microscopy / flow cytometry of association with Al—H; format: physicochemical; details: in the presence of Al—H
# [7] = Adsorption to aluminium hydroxide (Al—H), HPLC of supernatant; format: physicochemical; details: parent compound, in words
# [8] = Solubility in histidine buffer at pH 6.8; format: physicochemical
# [9] = Desorption from Al—H by phosphate / buffer anions; format: physicochemical; details: KH2PO4 0.5M final, pH 9, overnight at 37° C.
# [10] = +Al—H (adsorbed), read-out: Levels of compound in muscle 24 hours after injection
# [11] = 100 ug, compound alone, 24 hours
# [12] = SIF (simulated interstitial fluid)
# [13] = 100 ug, TLR2 agonists, compound alone
# [14] = TLR2 agonists, +Al—H (adsorbed)
SMILES,detection in muscle 24 hours after intramuscular injection ([2]; injected with Al—H),detection in muscle 24 hours after intramuscular injection ([2]; without Al—H (free form)),"concentration at 24 h [2, 10] [µM]",concentration at 24 h ([2]; compound alone) [µM],solubility (Water solubility) [µg/mL],EC50 (human TLR7) [µM],Cmax ([3]; +Al—H (adsorbed)) [nM],Cmax ([3]; compound alone) [nM],other results
"CCCCCNc1nc(N)nc(C)c1Cc1ccc(OCCOCCC(F)(F)P(=O)(O)O)cc1OC [Compound 71, (3-(2-(4-((2-amino-4-methyl-6-(pentylamino)pyrimidin-5-yl)methyl)-3-methoxyphenoxy)ethoxy)-1,1-difluoropropyl)phosphonic acid]",readily detected,undetectable,0.924,0,> 1000,2.7,1810,2600,"SBA titers at day 28 [1]: 65; effect of adsorption to Al—H on systemic cytokines (serum cytokines): generally reduced or unaffected; AUC [3, 11]: 2.09 µM·h; AUC ([3]; +Al—H (adsorbed), 24 hours): 4.22 µM·h"
"CCCCCCCCCCCC(=O)OC[C@H](CSC[C@H](N)C(=O)NCCOCCOCCOCCP(=O)(O)O)OC(=O)CCCCCCCCCCC [Compound 72, ((14R,18R)-14-amino-18-(dodecanoyloxy)-13,21-dioxo-3,6,9,20-tetraoxa-16-thia-12-azadotriacontyl)phosphonic acid]",–,–,14.5,0,–,–,–,–,–
Cc1cc(OCCCC(F)(F)P(=O)(O)O)ccc1CCc1cnc2c(N)nc3cc(CCC(=O)O)ccc3c2c1 [Compound 3],readily detected,undetectable,–,–,> 1000,–,–,–,"proportion desorbed after 5 hours ([4]; His buff): 5%; proportion desorbed after 5 hours ([4]; Plasma/His buff): 49%; proportion desorbed after 5 hours [4, 12]: 100%; adsorption of MenB antigens to Al—H after pre-adsorption of compound [5]: completely adsorbed"
"COCCOc1cc2c(nc(O)n2Cc2ccc(CP(=O)(O)O)cc2)c(N)n1 [Compound 67, (4-((4-amino-6-(2-methoxyethoxy)-2-oxo-2,3-dihydro-1H-imidazo[4,5-c]pyridin-1-yl)methyl)benzyl)phosphonic acid]",readily detected,undetectable,2.88,0,> 1000,6.5,4510,4060,"SBA titers at day 28 [1]: 64; effect of adsorption to Al—H on systemic cytokines (serum cytokines): generally reduced or unaffected; AUC [3, 11]: 3.57 µM·h; AUC ([3]; +Al—H (adsorbed), 24 hours): 8.11 µM·h"
"CCOCc1nc2c(N)nc3ccccc3c2n1CCOCCOCCOCCP(=O)(O)O [Compound 68, (2-(2-(2-(2-(4-amino-2-(ethoxymethyl)-1H-imidazo[4,5-c]quinolin-1-yl)ethoxy)ethoxy)ethoxy)ethyl)phosphonic acid]",readily detected,undetectable,0.502,0,> 1000,28,1720,2120,"effect of adsorption to Al—H on systemic cytokines (serum cytokines): generally reduced or unaffected; AUC [3, 11]: 1.39 µM·h; AUC ([3]; +Al—H (adsorbed), 24 hours): 2.76 µM·h"
Cc1ccc(CCc2cnc3c(N)nc4cc(C)ccc4c3c2)c(C)c1 [compound O],–,–,–,–,–,–,–,–,co-localisation with Al—H (flow cytometry) [6]: separate population; adsorption to the Al—H adjuvant [7]: fails to adsorb
"CCCCCCCCCCCC(=O)OC[C@H](CSC[C@H](N)C(=O)NC1(COCCCP(=O)(O)O)CC1)OC(=O)CCCCCCCCCCC [Compound 22, (3-((1-((R)-2-amino-3-(((R)-2,3-bis(dodecanoyloxy)propyl)thio)propanamido)cyclopropyl)methoxy)propyl)phosphonic acid]",–,–,25.3,0,–,–,–,–,–
CCCCCNc1nc(N)nc(C)c1Cc1ccc(CP(=O)(O)O)cc1 [Compound 69],–,–,–,–,–,47.4,–,–,–
Cc1ccc2c(c1)nc(N)c1ncc(CCc3ccc(OCCCP(=O)(O)O)cc3C)cc12 [Compound 13],–,–,–,–,–,–,–,–,"solubility in histidine buffer [8]: poorly soluble; compound in supernatant after KH2PO4 treatment (displacement / desorption) [9]: Increased quantities; proportion desorbed after 5 hours ([4]; His buff): 2%; proportion desorbed after 5 hours ([4]; Plasma/His buff): 9%; proportion desorbed after 5 hours [4, 12]: 4%"
CCCCCNc1nc(N)nc(C)c1Cc1ccc(CP(=O)(O)O)cc1OC [Compound 8],–,–,–,–,–,7.3,–,–,–
"COCCOc1nc(N)c2nc(O)n(Cc3ccc(CP(=O)(O)O)cc3)c2n1 [Compound 6, (4-((6-amino-2-(2-methoxyethoxy)-8-oxo-7H-purin-9(8H)-yl)methyl)benzyl)phosphonic acid]",–,undetectable,2.77,0,> 1000,0.41,5520,6120,"detection in inguinal lymph nodes or in liver ([2]; after 24 hours): could not be detected; AUC [3, 11]: 7.18 µM·h; AUC ([3]; +Al—H (adsorbed), 24 hours): 13.4 µM·h"
Cc1cc(OCCOCCOCCC(F)(F)P(=O)(O)O)ccc1CCc1cnc2c(N)nc3cc(CCC(=O)O)ccc3c2c1 [Compound 4],readily detected,undetectable,–,–,> 1000,–,–,–,"proportion desorbed after 5 hours ([4]; His buff): 4%; proportion desorbed after 5 hours ([4]; Plasma/His buff): 81%; proportion desorbed after 5 hours [4, 12]: 100%; adsorption of MenB antigens to Al—H after pre-adsorption of compound [5]: completely adsorbed"
"CCCCCCCCCCCCOC[C@H](CSC[C@H](N)C(=O)NCCOCCOCCOCCP(=O)(O)O)NC(=O)CCCCCCCCCCC [Compound 80, ((14R,18R)-14-amino-18-dodecanamido-13-oxo-3,6,9,20-tetraoxa-16-thia-12-azadotriacontyl)phosphonic acid]",–,–,47.2,5.07,–,–,180,2820,"AUC [3, 13]: 20.7 µM·h; AUC [3, 14]: 7.26 µM·h"
"CCCCCCCCCCCCOC[C@H](CSC[C@H](N)C(=O)NCCOCCOCCOCCP(=O)(O)O)OCCCCCCCCCCCC [Compound 74, ((14R,18R)-14-amino-18-(dodecyloxy)-13-oxo-3,6,9,20-tetraoxa-16-thia-12-azadotriacontyl)phosphonic acid]",–,–,49,27.8,–,–,317,1940,"AUC [3, 13]: 37.4 µM·h; AUC [3, 14]: 3.39 µM·h"
CCOCc1nc2c(N)nc3ccccc3c2n1CCOCCP(=O)(O)O [Compound 7],–,–,–,–,–,66,–,–,–

# — patent US20120177681A1, “Formulation of immunopotentiators” (priority 2010, published 2012)
